In US20110178165A1, “TETRAHYDROFURANYL SULFONAMIDES AND PHARMACEUTICAL COMPOSITIONS THEREOF” (Pfizer Inc., priority 2008, published 2011) one finds EC50 data, which are given here for four molecules.

A value given as a limit tells only on which side of the number the result lay.

In the test the test system is AMPA receptors. In words: AMPA ES cell FLIPR screen (AMPA potentiator assay). It is filed as cell-based. Particulars: murine ES cell-derived neurons, FLIPR Fluo-4 calcium, 32 uM AMPA challenge; * = geometric mean of 2 EC50 determinations. How it is done: The murine ES cell line used was E14-Sx1-16C, which has a targeted mutation in the Sox1 gene, a neuroectodermal marker, that offers G418 resistance when the Sox1 gene is expressed (Stem Cell Sciences). ES cells were maintained undifferentiated as previously described (Roach). […] ES cells were plated on gelatin-coated dishes (BD Biosciences), the media was changed daily and the cells were dissociated with 0.05% Trypsin EDTA (Invitrogen) every other day.
Embryoid Body Formation: Prior to embryoid body (EB) formation the ES cells were weaned from FBS onto Knockout Serum Replacement (KSR) (Invitrogen). To form EBs, ES cells were dissociated into a single cell suspension, then 3×10^6 cells were plated in bacteriology dishes (Nunc 4014) and grown as a suspension culture in NeuroEB-I medium that consisted of Knockout™ D-MEM (Invitrogen), supplemented with 10% KSR (Invitrogen), 0.2 mM L-Glutamine (Invitrogen), 0.1 mM MEM non-essential amino acids (Invitrogen), 30 μg/ml Gentamicin (Invitrogen), 1000 u/ml ESGRO (Chemicon), 0.1 mM 2-Mercaptoethanl (Sigma) and 150 ng/ml Transferrin (Invitrogen). The plates were put on a Stovall Belly Button shaker in an atmospheric oxygen incubator. The media was changed on day 2 of EB formation with NeuroEB-I and on day 4 with NeuroEB-II (NeuroEB-I plus 1 μg/ml mNoggin [R&D Systems]).
Neuronal Precursor Selection and Expansion: On day 5 of EB formation, EBs were dissociated with 0.05% Trypsin EDTA, and 4×10^6 cells/100 mm dish were plated on Laminin coated tissue culture dishes in Neuroll-G418 medium that consisted of a base medium of a 1:1 mixture of D-MEM/F12 supplemented with N2 supplements and NeuroBasal Medium supplemented with B27 supplement and 0.1 mM L-Glutamine (all from Invitrogen). The base medium was then supplemented with 10 ng/ml bFGF (Invitrogen), 1 μg/ml mNoggin, 500 ng/ml SHH—N, 100 ng/ml FGF-8b (R&D Systems), 1 μg/ml Laminin and 200 μg/ml G418 (Invitrogen) for selection of neuronal precursors expressing Sox-1. The plates were put in an incubator that contained 2% Oxygen and were maintained in these conditions. During the 6-day selection period, the Neuroll media was changed daily. On day 6, the surviving neuronal precursor foci were dissociated with 0.05% Trypsin EDTA and the cells were plated at a density of 1.5×10^6 cells/100 mm Laminin coated dish in Neuroll-G418 medium. The cells were dissociated every other day for expansion, and prepared for Cryopreservation at passage 3 or 4. The crypreservation medium contained 50% KSR, 10% Dimethyl Sulfoxide (DMSO) (Sigma) and 40% Neurol-G418I medium. Neuronal precursors were cryopreserved at a concentration of 4×10^6 cells/ml and 1 ml/cryovial in a controlled rate freezer overnight then transferred to an ultra-low freezer or liquid nitrogen for long-term storage. […]

By EC50 is commonly meant the midpoint of the concentration-response curve. As for `CC(C)S(=O)(=O)N[C@@H]1COC[C@@]1(O)c1ccc(-c2ccccc2)cc1` (stereo in doubt) [Example 4, N-[(3R,4R)-4-biphenyl-4-yl-4-hydroxytetrahydrofuran-3-yl]propane-2-sulfonamide], the EC50 was over 31.6 µM.
Consider `CC(C)S(=O)(=O)N[C@H]1COC[C@]1(O)c1ccc(-c2ccc(C#N)s2)cc1` [Example 1, N-{(3S,4S)-4-[4-(5-cyano-2-thienyl)phenyl]-4-hydroxytetrahydrofuran-3-yl}propane-2-sulfonamide], for which the concentration giving a half-maximal response (EC50) stood at 5.93 µM.
On to `CC(C)S(=O)(=O)N[C@@H]1COC[C@@]1(O)c1ccc(-c2ccc(C#N)s2)cc1` [Example 2, N-{(3R,4R)-4-[4-(5-cyano-2-thienyl)phenyl]-4-hydroxytetrahydrofuran-3-yl}propane-2-sulfonamide], for which the EC50 was over 31.6 µM.
For `CC(C)S(=O)(=O)N[C@H]1COC[C@]1(O)c1ccc(-c2ccccc2)cc1` [Example 3, N-[(3S,4S)-4-biphenyl-4-yl-4-hydroxytetrahydrofuran-3-yl]propane-2-sulfonamide] the value was 1.19 µM.
